# In publication PMC8869097, “Benzothiazole Derivatives as Multifunctional Antioxidant Agents for Skin Damage: Structure–Activity Relationship of a Scaffold Bearing a Five-Membered Ring System” (Antioxidants, 2022):
# Key:
# Epidermophyton floccosum = experiment: Antidermatophyte activity, plaque growth inhibition; format: cell-based, Epidermophyton floccosum var. floccosum CBS 358.93; details: 100 μg/mL, SDA, read-out: % Inhibition Growth E. floccosum
# Description: (§1) The dermatophytes used in this study were Epidermophyton floccosum var. floccosum (Netherlands) CBS 358.93 strain, Trichophyton tonsurans (Netherlands) CBS 483.76 strain, Trichophyton mentagrophytes (Netherlands) CBS 160.66 strain, Microsporum canis (Iran) CBS 131,110 strain, and Microsporum gypseum (Iran) CBS 130,948 strain. All dermatophytes were maintained at 4 °C as agar slants on SDA. Candida albicans (ATCC 10231) was maintained at 4 °C on SDA plate.
# (§2) The in vitro antifungal activity against the five selected dermatophytes was evaluated, as previously described, using the plaque growth inhibition method. All compounds were evaluated at the final concentration of 100 µg/mL. The percentages of growth inhibition according to Equation (5) were calculated as the average of three different experiments. I = [(C − T)/C] × 100%,(5) where I is the percentage value of growth inhibition, C is the measure of the diameter of the control circular mycelial inoculum (mm) and T is the extended diameter of the treated mycelial inoculum (mm).
# (§3) All synthesized benzothiazole derivatives were evaluated to evaluate their in vitro antifungal activity against the five pathogenic dermatophytes that cause the most common dermatomycoses: Microsporum gypseum, Microsporum canis, Trichophyton mentagrophytes, Trichophyton tonsurans and Epidermophyton floccosum. All compounds were tested at a concentration of 100 µg/mL in DMSO, to evaluate the ability to inhibit the growth of dermatophyte cultures in Sabouraud Dextrose Agar (SDA). Briefly, room temperature incubation was performed and dermatophyte inhibition assessed by measuring the colony diameter at each disc for 7 days. The results are shown in Table 3 and were determined as the average of three different experiments.
# [1] = test system: Candida albicans (ATCC 10231); experiment: Anti-Candida albicans activity, broth microdilution MIC; format: cell-based; details: Candida albicans, ATCC10231; 24 h of incubation
# Description: as §1
# The suspension of Candida albicans consists of the dispersion of an aliquot in 5 mL of sterilized water. The compounds and fluconazole, used as a positive control, were solubilized in DMSO (12.80 mg/mL) as stock solutions. Minimum inhibitory concentration (MIC) was performed by the broth microdilution method according to the approved standard M27-A3, 2008 [NCCLS] of the Clinical and Laboratory Standards Institute/National Committee for Clinical Laboratory Standards (CLSI/NCCLS), as described previously.
# Candida is a strain of fungi known to transmit infections to different parts of the human body, including the skin [43], which is why the synthesized compounds have also been tested against Candida Albicans (ATCC 10231). For each of them the minimum inhibitory concentration (MIC) was determined by the broth microdilution method using RPMI 1640 + MOPS as culture medium. […] Fluconazole was used as a positive control drug. […] Similarly to the results observed on dermatophytes, therefore, the unsubstituted compounds in position 6 of benzimidazole gave activity on yeasts, except for compound 8a.
# Microsporum canis = experiment: Antidermatophyte activity, plaque growth inhibition; format: cell-based, Microsporum canis CBS 131,110; details: 100 μg/mL, SDA, read-out: % Inhibition Growth M. canis
# Description: as §1, §2, §3
# Trichophyton tonsurans = experiment: as above; format: cell-based, Trichophyton tonsurans CBS 483.76; details: 100 μg/mL, SDA, read-out: % Inhibition Growth T. tonsurans
# Description: as §1, §2, §3
# Microsporum gypseum = experiment: as above; format: cell-based, Microsporum gypseum CBS 130,948; details: Nannizzia gypsea; 100 μg/mL, SDA; read-out: % Inhibition Growth M. gypseum
# Description: as §1, §2, §3
# [2] = test system: Trichophyton mentagrophytes; experiment: as above; format: cell-based, Trichophyton mentagrophytes CBS 160.66; details: 100 μg/mL, SDA, read-out: % Inhibition Growth T. mentagrophytes
# Description: as §1, §2, §3
smiles,measurement,setting,value
"OC(Cn1cncn1)(Cn1cncn1)c1ccc(F)cc1F [Fluconazole, reference compound]",inhibition at 100 µg/mL,Epidermophyton floccosum,0.12 ± 0.004%
same,MIC,[1],0.5 µg/mL
same,inhibition at 100 µg/mL,Microsporum canis,30.1 ± 0.4%
same,inhibition at 100 µg/mL,Trichophyton tonsurans,18.7 ± 0.62%
same,inhibition at 100 µg/mL,Microsporum gypseum,18.2 ± 0.9%
same,inhibition at 100 µg/mL,[2],3.75 ± 0.24%
